Measured values reported in patent US12098145B2 (Libra Therapeutics, Inc., priority 2022, dated 2024).

molecular target: T1, TRPML1 (Homo sapiens, UniProt Q9GZU1); experiment: Cellular TRPML1 assay (FLIPR, GCaMP6f calcium read-out); type: cell-based; conditions: HEKT-REx/GCaMP6f/TRPML1 cells, FLIPR TETRA, kinetic response over 300 seconds
T1 construct: expressed in transfected cells; host or cells: HEK T-REx cells stably expressing GCaMP6f and TRPML1
Protocol: Example A: Cellular TRPML1 Assay
The final clone for the TRPML1 assay is HEKT-REx/GCaMP6f/TRPML1. GCaMP6f is a genetically encoded calcium indicator that is stably expressed in this cell line and used as a fluorescent read-out.
Experiments were performed in 384 MTP format. Cells are seeded at 15000 cells/well in 20 μl/well of Optimem+0.5% FBS without selection antibiotics. Twenty-four hours later, cells are assayed for the response to various compounds using the Ca^2+ sensitive GCaMP6f protein stably expressed in the cells as readout.
The experiment was performed in a 384-well format according to the following procedures: • 24 h after seeding, the cells were pre-incubated at room temperature for about 10 min. • Started the experiment at the FLIPR^TETRA by injecting 10 μL/w of 3× concentrated test compounds and controls in Ca^2+ free Tyrode's buffer. Monitored the kinetic response over a period of 300 seconds. • Final DMSO concentration: 0.5%
Data from FLIPR^TETRA measurements were analyzed with the Genedata Screener© software.

T1 sequence (Q9GZU1 whole entry): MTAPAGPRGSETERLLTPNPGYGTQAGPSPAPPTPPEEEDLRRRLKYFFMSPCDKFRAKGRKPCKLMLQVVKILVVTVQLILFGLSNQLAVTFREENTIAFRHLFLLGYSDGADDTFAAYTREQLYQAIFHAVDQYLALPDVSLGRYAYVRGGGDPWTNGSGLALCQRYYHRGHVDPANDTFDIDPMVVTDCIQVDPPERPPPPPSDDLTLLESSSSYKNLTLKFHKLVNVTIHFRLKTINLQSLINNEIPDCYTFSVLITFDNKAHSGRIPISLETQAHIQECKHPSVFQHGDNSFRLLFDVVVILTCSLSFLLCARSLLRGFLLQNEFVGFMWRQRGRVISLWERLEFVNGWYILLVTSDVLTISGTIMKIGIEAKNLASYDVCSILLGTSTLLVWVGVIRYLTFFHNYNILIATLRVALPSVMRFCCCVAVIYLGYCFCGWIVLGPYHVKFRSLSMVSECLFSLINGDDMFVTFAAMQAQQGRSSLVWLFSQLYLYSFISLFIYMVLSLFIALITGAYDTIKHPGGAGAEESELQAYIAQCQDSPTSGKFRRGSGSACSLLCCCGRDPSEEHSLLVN

TRPML1 FLIPR pEC50 | SMILES
C (C = 5.0-4.0) | Cc1oc(N2CCC(F)(F)C2)nc1C(=O)Nc1ccc(N2CCCCC2)c(F)c1 [Example 121, 2-(3,3-difluoropyrrolidin-1-yl)-N-(3-fluoro-4-(piperidin-1-yl)phenyl)-5-methyloxazole-4-carboxamide]

same assay, conditions: HEKT-REx/GCaMP6f/TRPML1 cells, FLIPR TETRA, kinetic response over 300 seconds; read-out: TRPML1 FLIPR pEC50 (converted)

EC50 | SMILES
10 to 100 µM | Cc1oc(N2CCC(O)C2)nc1C(=O)Nc1ccc(N2CCCCC2)c(F)c1 (stereo not shown) [Example 97, N-(3-fluoro-4-(piperidin-1-yl)phenyl)-2-(3-hydroxypyrrolidin-1-yl)-5-methyloxazole-4-carboxamide]
10 to 100 µM | COCc1oc(N2CCCC2)nc1C(=O)Nc1ccc(OC2CCCC2)c(F)c1 [Example 101, N-[4-(cyclopentyloxy)-3-fluorophenyl]-5-(methoxymethyl)-2-(pyrrolidin-1-yl)oxazole-4-carboxamide]
1 to 10 µM | COCc1oc(N2CCCC2)nc1C(=O)Nc1cc(F)c(N2CCCCC2)c(F)c1 [Example 102, N-[3,5-difluoro-4-(piperidin-1-yl)phenyl]-5-(methoxymethyl)-2-(pyrrolidin-1-yl) oxazole-4-carboxamide]
10 to 100 µM | COCc1oc(N2CCCC2C)nc1C(=O)Nc1ccc(N2CCCCC2)c(F)c1 (stereo not shown) [Example 103, N-(3-fluoro-4-(piperidin-1-yl)phenyl)-5-(methoxymethyl)-2-(2-methylpyrrolidin-1-yl)oxazole-4-carboxamide]
1 to 10 µM | COCc1oc(N2CC3(C2)CC(F)(F)C3)nc1C(=O)Nc1ccc(N2CCCCC2)c(F)c1 [Example 104, 2-{6,6-difluoro-2-azaspiro[3.3]heptan-2-yl}-N-[3-fluoro-4-(piperidin-1-yl)phenyl]-5-(methoxymethyl)oxazole-4-carboxamide]
1 to 10 µM | COCc1oc(N2CCCC2)nc1C(=O)Nc1ccc(OC2CCCC2(F)F)c(F)c1 (stereo not shown) [Example 105, N-(4-((2,2-difluorocyclopentyl)oxy)-3-fluorophenyl)-5-(methoxymethyl)-2-(pyrrolidin-1-yl)oxazole-4-carboxamide]
10 to 100 µM | Cc1oc(N2CCC(CN3CCC3)C2)nc1C(=O)Nc1ccc(N2CCCCC2)c(F)c1 (stereo not shown) [Example 106, 2-(3-(azetidin-1-ylmethyl)pyrrolidin-1-yl)-N-(3-fluoro-4-(piperidin-1-yl)phenyl)-5-methyloxazole-4-carboxamide]
10 to 100 µM | Cc1oc(N2CCC(CN3CCC(F)(F)CC3)C2)nc1C(=O)Nc1ccc(N2CCCCC2)c(F)c1 (stereo not shown) [Example 107, 2-(3-((4,4-difluoropiperidin-1-yl)methyl)pyrrolidin-1-yl)-N-(3-fluoro-4-(piperidin-1-yl)phenyl)-5-methyloxazole-4-carboxamide]
1 to 10 µM | CC(C)OCc1oc(N2CCCC2)nc1C(=O)Nc1ccc(OC2CCCC2(F)F)c(F)c1 (stereo not shown) [Example 109]
1 to 10 µM | CCCc1oc(N2CCCC2)nc1C(=O)Nc1ccc(OC2CCCC2(F)F)c(F)c1 (stereo not shown) [Example 110, N-(4-((2,2-difluorocyclopentyl)oxy)-3-fluorophenyl)-5-propyl-2-(pyrrolidin-1-yl)oxazole-4-carboxamide]
1 to 10 µM | Cc1oc(-n2cccc2)nc1C(=O)Nc1ccc(N2CCCCC2)c(F)c1 [Example 113, N-(3-fluoro-4-(piperidin-1-yl)phenyl)-5-methyl-2-(1H-pyrrol-1-yl)oxazole-4-carboxamide]
10 to 100 µM | Cc1oc(N2CCCCC2)nc1C(=O)Nc1ccc(N2CCCCC2)c(F)c1 [Example 114, N-(3-fluoro-4-(piperidin-1-yl)phenyl)-5-methyl-2-(piperidin-1-yl)oxazole-4-carboxamide]
10 to 100 µM | Cc1oc(N(C)C(C)C)nc1C(=O)Nc1ccc(N2CCCCC2)c(F)c1 [Example 115, N-(3-fluoro-4-(piperidin-1-yl)phenyl)-2-(isopropyl(methyl)amino)-5-methyloxazole-4-carboxamide]
10 to 100 µM | Cc1oc(N(C)C)nc1C(=O)Nc1ccc(N2CCCCC2)c(F)c1 [Example 117, 2-(dimethylamino)-N-(3-fluoro-4-(piperidin-1-yl)phenyl)-5-methyloxazole-4-carboxamide]
1 to 10 µM | Cc1oc(N2CCCC2C)nc1C(=O)Nc1ccc(N2CCCCC2)c(F)c1 (stereo not shown) [Example 119, N-(3-fluoro-4-(piperidin-1-yl)phenyl)-5-methyl-2-(2-methylpyrrolidin-1-yl)oxazole-4-carboxamide]
10 to 100 µM | Cc1oc(N2CCC(C)C2)nc1C(=O)Nc1ccc(N2CCCCC2)c(F)c1 (stereo not shown) [Example 122, N-(3-fluoro-4-(piperidin-1-yl)phenyl)-5-methyl-2-(3-methylpyrrolidin-1-yl)oxazole-4-carboxamide]
1 to 10 µM | Cc1oc(N2C[C@H]3CCO[C@H]3C2)nc1C(=O)Nc1ccc(N2CCCCC2)c(F)c1 [Example 123, N-(3-fluoro-4-(piperidin-1-yl)phenyl)-2-((3aR,6aR)-hexahydro-5H-furo[2,3-c]pyrrol-5-yl)-5-methyloxazole-4-carboxamide]
1 to 10 µM | CCC1(CC)CN(c2nc(C(=O)Nc3cc(F)c(OC4CCCC5(CC5)C4)c(F)c3)c(CC(F)(F)F)o2)C1 (stereo not shown) [Example 132, 2-(3,3-diethylazetidin-1-yl)-N-(3,5-difluoro-4-(spiro[2.5]octan-5-yloxy)phenyl)-5-(2,2,2-trifluoroethyl)oxazole-4-carboxamide]
1 to 10 µM | COC1(C)CN(c2nc(C(=O)Nc3ccc(OC4CC5CCC(C4)O5)c(F)c3)c(CC(F)(F)F)o2)C1 (stereo not shown) [Example 133, N-(4-((8-oxabicyclo[3.2.1]octan-3-yl)oxy)-3-fluorophenyl)-2-(3-methoxy-3-methylazetidin-1-yl)-5-(2,2,2-trifluoroethyl)oxazole-4-carboxamide]
1 to 10 µM | CCC1(CC)CN(c2nc(C(=O)Nc3cc(F)c(OC4CCCC5(CCC5)C4)c(F)c3)c(CC(F)(F)F)o2)C1 (stereo not shown) [Example 134, 2-(3,3-diethylazetidin-1-yl)-N-(3,5-difluoro-4-(spiro[3.5]nonan-6-yloxy)phenyl)-5-(2,2,2-trifluoroethyl)oxazole-4-carboxamide]
0.01 to 1 µM | O=C(Nc1cc(F)c(OCC23CC(C2)C3)c(F)c1)c1nc(N2CCCC2)oc1CC(F)(F)F [Example 136, N-(4-(bicyclo[1.1.1]pentan-1-ylmethoxy)-3,5-difluorophenyl)-2-(pyrrolidin-1-yl)-5-(2,2,2-trifluoroethyl)oxazole-4-carboxamide]
0.01 to 1 µM | CCC1(CC)CN(c2nc(C(=O)Nc3cc(F)c(OC4CCCOC4)c(F)c3)c(CC(F)(F)F)o2)C1 (stereo not shown) [Example 137, 2-(3,3-diethylazetidin-1-yl)-N-(3,5-difluoro-4-((tetrahydro-2H-pyran-3-yl)oxy)phenyl)-5-(2,2,2-trifluoroethyl)oxazole-4-carboxamide]
0.01 to 1 µM | O=C(Nc1cc(F)c(OC2CCC3(CC3)C2)c(F)c1)c1nc(N2CCCC2)oc1CC(F)(F)F (stereo not shown) [Example 138, N-(3,5-difluoro-4-(spiro[2.4]heptan-5-yloxy)phenyl)-2-(pyrrolidin-1-yl)-5-(2,2,2-trifluoroethyl)oxazole-4-carboxamide]
10 to 100 µM | O=C(Nc1cc(F)c(OC2CC3(CCC3)C2)c(F)c1)c1nc(N2CCCC2)oc1CC(F)(F)F [Example 139, N-(3,5-difluoro-4-(spiro[3.3]heptan-2-yloxy)phenyl)-2-(pyrrolidin-1-yl)-5-(2,2,2-trifluoroethyl)oxazole-4-carboxamide]
0.01 to 1 µM | O=C(Nc1cc(F)c(OC2CC3CCC2C3)c(F)c1)c1nc(N2CCCC2)oc1CC(F)(F)F (stereo not shown) [Example 141, N-(4-(bicyclo[2.2.1]heptan-2-yloxy)-3,5-difluorophenyl)-2-(pyrrolidin-1-yl)-5-(2,2,2-trifluoroethyl)oxazole-4-carboxamide]
1 to 10 µM | COC1(C)CN(c2nc(C(=O)Nc3ccc(O[C@@H]4C[C@@H]5C[C@@H]5C4)c(C#N)c3)c(CC(F)(F)F)o2)C1 [Example 146, N-(4-(cis-bicyclo[3.1.0]hexan-3-yloxy)-3-cyanophenyl)-2-(3-methoxy-3-methylazetidin-1-yl)-5-(2,2,2-trifluoroethyl)oxazole-4-carboxamide]
1 to 10 µM | COCCN(CC(C)C)c1nc(C(=O)Nc2cc(F)c(O[C@@H]3C[C@@H]4C[C@@H]4C3)c(F)c2)c(CC(F)(F)F)o1 [Example 147, N-(4-(cis-bicyclo[3.1.0]hexan-3-yloxy)-3,5-difluorophenyl)-2-(isobutyl(2-methoxyethyl)amino)-5-(2,2,2-trifluoroethyl)oxazole-4-carboxamide]
0.01 to 1 µM | CCC1(OC)CN(c2nc(C(=O)Nc3cc(F)c(OC4C[C@@H]5CC[C@H]4C5)c(F)c3)c(CC(F)(F)F)o2)C1 (stereo partly drawn) [Example 151, N-(4-(((1S,4R)-bicyclo[2.2.1]heptan-2-yl)oxy)-3,5-difluorophenyl)-2-(3-ethyl-3-methoxyazetidin-1-yl)-5-(2,2,2-trifluoroethyl)oxazole-4-carboxamide]
10 to 100 µM | CCCN(CCOC)c1nc(C(=O)Nc2cc(F)c(O[C@@H]3C[C@@H]4C[C@@H]4C3)c(F)c2)c(CC(F)(F)F)o1 [Example 152, N-(4-(cis-bicyclo[3.1.0]hexan-3-yloxy)-3,5-difluorophenyl)-2-((2-methoxyethyl)(propyl)amino)-5-(2,2,2-trifluoroethyl)oxazole-4-carboxamide]

SMILES | EC50
Cc1oc(N2C3CCC2COC3)nc1C(=O)Nc1ccc(N2CCCCC2)c(F)c1 [Example 98, 2-(3-oxa-8-azabicyclo[3.2.1]octan-8-yl)-N-(3-fluoro-4-(piperidin-1-yl)phenyl)-5-methyloxazole-4-carboxamide] | 10 to 100 µM
